Laboratory results as given in patent US20190119298A1, “FUSED 3-PHENYLTETRAMIC ACID DERIVATIVES HAVING HERBICIDAL ACTION” (Bayer CropScience Aktiengesellschaft, priority 2016, published 2019).

Key:
Assay type in all cases: in vivo
Alopecurus myosuroides [1] = assay: Pre-emergence herbicidal effect; conditions: 320 g/ha, scored visually after 3 weeks vs untreated controls, 100% = plants have died
In short: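 Seeds sown in sandy loam and covered; WP- or EC-formulated compounds sprayed onto covering soil at 600–800 L/ha water with 0.2% wetting agent. Greenhouse-grown; damage scored visually after 3 weeks versus untreated controls (100% = plants died, 0% = like control).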

Avena fatua [2] = assay: Pre-emergence herbicidal effect; conditions: 320 g/ha, scored visually after 3 weeks vs untreated controls, 100% = plants have died
In short: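 Weed and crop seeds sown in sandy loam were treated pre-emergence on the soil surface with WP or EC formulations at a water rate of 600 to 800 L/ha plus 0.2% wetting agent. Plants grown in a greenhouse; damage scored visually after 3 weeks as percent activity relative to untreated controls (100% = dead).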

Echinochloa crus-galli [3] = assay: Pre-emergence herbicidal effect; conditions: 320 g/ha, scored visually after 3 weeks vs untreated controls, 100% = plants have died
In short: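 Wettable powder or emulsion concentrate sprayed onto soil covering freshly sown seeds in sandy loam, 600 to 800 L/ha water with 0.2% wetting agent. Pots kept in greenhouse. Damage scored visually after 3 weeks against untreated controls, 0-100% activity.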

Lolium multiflorum [4] = assay: Pre-emergence herbicidal effect; conditions: 320 g/ha, scored visually after 3 weeks vs untreated controls, 100% = plants have died
In short: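 Seeds sown in sandy loam and covered; compounds as WP or EC applied to the soil surface pre-emergence at 600 to 800 L/ha water with 0.2% wetting agent. Greenhouse growth for 3 weeks, then damage scored visually versus untreated controls (100% = plants dead, 0% = like control).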

Setaria viridis [5] = assay: Pre-emergence herbicidal effect; conditions: 320 g/ha, scored visually after 3 weeks vs untreated controls, 100% = plants have died
In short: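 Pre-emergence: WP or EC formulations sprayed onto the soil surface over sown seeds in sandy loam at 600–800 L/ha water with 0.2% wetting agent. Plants kept in a greenhouse; damage scored visually after 3 weeks as % activity versus untreated controls (100% = dead).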

Alopecurus myosuroides [6] = assay: Post-emergence herbicidal effect; conditions: one-leaf stage, 320 g/ha, assessed visually after about 3 weeks, 100% = plants have died
In short: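 Monocot and dicot plants grown in sandy loam in a greenhouse were sprayed at the one-leaf stage, 2–3 weeks after sowing, with WP or EC formulations in 600–800 L/ha water plus 0.2% wetting agent. Damage scored visually after about 3 weeks versus untreated controls (0% like control, 100% dead).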

Avena fatua [7] = assay: Post-emergence herbicidal effect; conditions: one-leaf stage, 320 g/ha, assessed visually after about 3 weeks, 100% = plants have died
In short: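 Greenhouse-grown plants in sandy loam treated at one-leaf stage, 2–3 weeks after sowing, by spraying WP or EC formulations as aqueous suspension/emulsion at 600–800 L/ha water with 0.2% wetting agent. After about 3 weeks, effect scored visually versus untreated controls (0% = like control, 100% = plants dead).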

Echinochloa crus-galli [8] = assay: Post-emergence herbicidal effect; conditions: one-leaf stage, 320 g/ha, assessed visually after about 3 weeks, 100% = plants have died
In short: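 Greenhouse plants in sandy loam were sprayed at the one-leaf stage with WP or EC formulations at 600 to 800 L/ha water with 0.2% wetting agent. After about 3 weeks, damage was scored visually in % against untreated controls (100% = dead).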

Lolium multiflorum [9] = assay: Post-emergence herbicidal effect; conditions: one-leaf stage, 320 g/ha, assessed visually after about 3 weeks, 100% = plants have died
In short: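 Plants in sandy loam treated post-emergence at one-leaf stage (2–3 weeks after sowing) with WP or EC formulations sprayed at 600–800 L/ha water plus 0.2% wetting agent. After about 3 weeks in the greenhouse, percent herbicidal action rated visually against untreated controls (100% = plants dead).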

Setaria viridis [10] = assay: Post-emergence herbicidal effect; conditions: one-leaf stage, 320 g/ha, assessed visually after about 3 weeks, 100% = plants have died
In short: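 Greenhouse plants grown in sandy loam were sprayed at the one-leaf stage, 2-3 weeks after sowing. Compounds were applied as WP or EC formulations in 600-800 L/ha water plus 0.2% wetting agent. About 3 weeks later, damage was scored visually against untreated controls (0% = like control, 100% = dead plants).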

CCc1cccc(C)c1C1=C(O)C2CCOCCN2C1=O (stereo not shown) [Ia-1-4]
100%: Pre-emergence action AVEFA (herbicidal activity in percent) (Avena fatua [2]) | Pre-emergence action ECHCG (herbicidal activity in percent) (Echinochloa crus-galli [3]) | Pre-emergence action LOLMU (herbicidal activity in percent) (Lolium multiflorum [4]) | Pre-emergence action SETVI (herbicidal activity in percent) (Setaria viridis [5]) | Post-emergence effectiveness ALOMY (herbicidal action in percent) (Alopecurus myosuroides [6]) | Post-emergence effectiveness AVEFA (herbicidal action in percent) (Avena fatua [7]) | Post-emergence effectiveness ECHCG (herbicidal action in percent) (Echinochloa crus-galli [8]) | Post-emergence effectiveness LOLMU (herbicidal action in percent) (Lolium multiflorum [9]) | Post-emergence effectiveness SETVI (herbicidal action in percent) (Setaria viridis [10])
80%: Pre-emergence action ALOMY (herbicidal activity in percent) (Alopecurus myosuroides [1])
